This assay deals with human GLP-1R (Homo sapiens, UniProt P43220, G168S). Put plainly: CHO GLP-1R Clone H6 cAMP HTRF agonist assay (Assay 1, high receptor density). The following applies: for EC50: CHO GLP-1R clone H6, cAMP HTRF, geometric mean; for Emax: CHO GLP-1R clone H6, arithmetic mean, relative to saturating GLP-1 (1 μM), read-out: Assay 1 Emax (%). Format: cell-based. The text has this: In Table 5 and Table 6, assay data are presented to two (2) significant figures as the geometric mean (EC50s) and arithmetic mean (Emax) based on the number of replicates listed (Number). A blank cell means there was no data for that Example or the Emax was not calculated.
Background: In TR-FRET formats the signal depends on donor and acceptor labels being close together.

Broadly, the EC50 is the concentration needed to bring the measured effect to its halfway point. A high value points to weaker potency. Usually Emax stands for the greatest response seen or fitted, relative to the assay's reference.

Chain of human GLP-1R (P43220 24-463 G168S): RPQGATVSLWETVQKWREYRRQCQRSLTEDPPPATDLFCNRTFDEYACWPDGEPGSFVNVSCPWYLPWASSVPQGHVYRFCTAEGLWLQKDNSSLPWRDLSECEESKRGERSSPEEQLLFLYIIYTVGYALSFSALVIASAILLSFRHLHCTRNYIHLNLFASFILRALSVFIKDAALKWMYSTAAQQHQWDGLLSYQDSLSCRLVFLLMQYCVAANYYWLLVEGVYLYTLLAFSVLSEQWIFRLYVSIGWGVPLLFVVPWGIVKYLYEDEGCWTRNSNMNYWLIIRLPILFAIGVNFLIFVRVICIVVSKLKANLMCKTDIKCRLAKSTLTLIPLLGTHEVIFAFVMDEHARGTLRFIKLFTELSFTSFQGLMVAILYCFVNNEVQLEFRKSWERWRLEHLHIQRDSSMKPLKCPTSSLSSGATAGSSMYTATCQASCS

Consider `Cn1ncnc1Cn1c(CN2CCC(c3cccc(OCc4ccc(Cl)cc4F)n3)CC2)nc2ccc(C(=O)O)cc21` [Compound 308B, 2-[(4-{6-[(4-chloro-2-fluorobenzyl)oxy]pyridin-2-yl}piperidin-1-yl)methyl]-1-[(1-methyl-1H-1,2,4-triazol-5-yl)methyl]-1H-benzimidazole-6-carboxylic acid], for which it took 290 nM to reach a half-maximal effect (EC50) and the Emax amounted to 74%.
For `COC[C@@H](C)n1c(CN2CCC(c3cccc(OCc4ccc(Cl)cc4F)n3)CC2)nc2ccc(C(=O)O)cc21` [Compound 321B, 2-[(4-{6-[(4-chloro-2-fluorobenzyl)oxy]pyridin-2-yl}piperidin-1-yl)methyl]-1-[(2R)-1-methoxypropan-2-yl]-1H-benzimidazole-6-carboxylic acid], the response was half-maximal at 1100 nM (EC50) and the Emax came out at 81%.
Take `O=C(O)c1ccc2nc(CN3CCC(c4cccc(OCc5ccc(Cl)cc5F)n4)CC3)n(CC3CCCOC3)c2c1` (centres unmarked) [Compound 315B, 2-[(4-{6-[(4-chloro-2-fluorobenzyl)oxy]pyridin-2-yl}piperidin-1-yl)methyl]-1-(tetrahydro-2H-pyran-3-ylmethyl)-1H-benzimidazole-6-carboxylic acid]: the EC50 was 440 nM and the maximal effect (Emax) stood at 86%.
As to `COCCn1c(CN2CCN(c3cccc(OCc4ccc(C#N)cc4F)n3)C[C@@H]2C)nc2ccc(C(=O)O)cc21` [Compound 173B, 2-{[(2S)-4-{6-[(4-cyano-2-fluorobenzyl)oxy]pyridin-2-yl}-2-methylpiperazin-1-yl]methyl}-1-(2-methoxyethyl)-1H-benzimidazole-6-carboxylic acid], the response was half-maximal at 2700 nM (EC50) and the Emax stood at 85%.
On to `Cn1c(CN2CCC(c3cccc(OCc4ccc(C#N)cc4)n3)CC2)nc2ccc(C(=O)O)cc21` [Compound 234B, 2-[(4-{6-[(4-cyanobenzyl)oxy]pyridin-2-yl}piperidin-1-yl)methyl]-1-methyl-1H-benzimidazole-6-carboxylic acid], for which the 50% effective concentration (EC50) was determined as 290 nM and the maximal effect (Emax) worked out at 64%.
On the same counts, the results for `O=C(O)c1ccc2nc(CN3CCC(c4cccc(OCc5ccc(Cl)cc5F)n4)CC3)n(CCN3CCOCC3)c2c1` [Compound 325B, 2-[(4-{6-[(4-chloro-2-fluorobenzyl)oxy]pyridin-2-yl}piperidin-1-yl)methyl]-1-[2-(morpholin-4-yl)ethyl]-1H-benzimidazole-6-carboxylic acid] are 2200 nM and 87%.
On the same counts, the results for `COCCn1c(CN2CCN(c3cccc(OCc4ccc(C#N)cc4)n3)CC2)nc2ccc(C(=O)O)cc21` [Compound 171B, 2-[(4-{6-[(4-cyanobenzyl)oxy]pyridin-2-yl}piperazin-1-yl)methyl]-1-(2-methoxyethyl)-1H-benzimidazole-6-carboxylic acid] are 200 nM and 79%.
Consider `CCn1cncc1Cn1c(CN2CCN(c3cccc(OCc4ccc(C#N)cc4F)n3)C[C@@H]2C)nc2ccc(C(=O)O)cc21` [Compound 269B, 2-{[(2S)-4-{6-[(4-cyano-2-fluorobenzyl)oxy]pyridin-2-yl}-2-methylpiperazin-1-yl]methyl}-1-[(1-ethyl-1H-imidazol-5-yl)methyl]-1H-benzimidazole-6-carboxylic acid], for which the EC50 is over 20000 nM.
Regarding `O=C(O)c1ccc2nc(CN3CCC(c4cccc(OCc5ccc(Cl)cc5F)n4)CC3)n(CC3CCCCO3)c2c1` (centres unmarked) [Compound 323B, 2-[(4-{6-[(4-chloro-2-fluorobenzyl)oxy]pyridin-2-yl}piperidin-1-yl)methyl]-1-(tetrahydro-2H-pyran-2-ylmethyl)-1H-benzimidazole-6-carboxylic acid], the midpoint of the response, the EC50, lay at 1600 nM and the maximum response (Emax) stood at 80%.
The matching figures for `O=C(O)c1ccc2nc(CN3CCC(c4cccc(OCc5ccc(F)cc5F)n4)CC3)n(C[C@@H]3CCO3)c2n1` [Compound 118B, 2-[(4-{6-[(2,4-difluorobenzyl)oxy]pyridin-2-yl}piperidin-1-yl)methyl]-3-[(2S)-oxetan-2-ylmethyl]-3H-imidazo[4,5-b] pyridine-5-carboxylic acid]: 750 nM and 76%.
On the same counts, the results for `C[C@H]1CN(c2cccc(OCc3ccc(Cl)cc3F)n2)CCN1Cc1nc2ccc(C(=O)O)cc2n1Cc1ncco1` [Compound 148B, 2-{[(2S)-4-{6-[(4-chloro-2-fluorobenzyl)oxy]pyridin-2-yl}-2-methylpiperazin-1-yl]methyl}-1-(1,3-oxazol-2-ylmethyl)-1H-benzimidazole-6-carboxylic acid] are 340 nM and 74%.
The matching figures for `CCn1ccnc1Cn1c(CN2CCC(c3cccc(OCc4ccc(Cl)cc4F)n3)CC2)nc2ccc(C(=O)O)cc21` [Compound 314B, 2-[(4-{6-[(4-chloro-2-fluorobenzyl)oxy]pyridin-2-yl}piperidin-1-yl)methyl]-1-[(1-ethyl-1H-imidazol-2-yl)methyl]-1H-benzimidazole-6-carboxylic acid]: 390 nM and 69%.
`Cn1cnc(CCn2c(CN3CCC(c4cccc(OCc5ccc(Cl)cc5F)n4)CC3)nc3ccc(C(=O)O)cc32)c1` [Compound 276B, 2-[(4-{6-[(4-chloro-2-fluorobenzyl)oxy]pyridin-2-yl}piperidin-1-yl)methyl]-1-[2-(1-methyl-1H-imidazol-4-yl)ethyl]-1H-benzimidazole-6-carboxylic acid]: the concentration giving a half-maximal response (EC50) is over 20000 nM.
Consider `N#Cc1ccc(COc2cccc(C3CCN(Cc4nc5ccc(C(=O)O)cc5n4C[C@@H]4CCO4)CC3)n2)cc1` [Compound 130B, 2-[(4-{6-[(4-cyanobenzyl)oxy]pyridin-2-yl}piperidin-1-yl)methyl]-1-[(2S)-oxetan-2-ylmethyl]-1H-benzimidazole-6-carboxylic acid], for which the EC50 was over 11000 nM and the maximum response (Emax) stood at 84%.
The matching figures for `CCc1noc(Cn2c(CN3CCC(c4cccc(OCc5ccc(Cl)cc5F)n4)CC3)nc3ccc(C(=O)O)cc32)n1` [Compound 264B, 2-[(4-{6-[(4-chloro-2-fluorobenzyl)oxy]pyridin-2-yl}piperidin-1-yl)methyl]-1-[(3-ethyl-1,2,4-oxadiazol-5-yl)methyl]-1H-benzimidazole-6-carboxylic acid]: over 10000 nM and 85%.
On to `COCCn1c(CN2CCC(c3cccc(OCc4ccc(Cl)cc4F)n3)CC2)nc2ccc(C(=O)O)cc21` [Compound 176B, 2-[(4-{6-[(4-chloro-2-fluorobenzyl)oxy]pyridin-2-yl}piperidin-1-yl)methyl]-1-(2-methoxyethyl)-1H-benzimidazole-6-carboxylic acid], for which the EC50 was 2400 nM and the maximum response (Emax) was found to be 87%.
The matching figures for `CC(C)n1cnnc1Cn1c(CN2CCC(c3cccc(OCc4ccc(Cl)cc4F)n3)CC2)nc2ccc(C(=O)O)cc21` [Compound 236B, 2-[(4-{6-[(4-chloro-2-fluorobenzyl)oxy]pyridin-2-yl}piperidin-1-yl)methyl]-1-{[4-(propan-2-yl)-4H-1,2,4-triazol-3-yl]methyl}-1H-benzimidazole-6-carboxylic acid]: 1300 nM and 79%.
For the compound `CN1CC[C@@H]1Cn1c(CN2CCC(c3cccc(OCc4ccc(Cl)cc4F)n3)CC2)nc2ccc(C(=O)O)cc21` (stereo in doubt) [Compound 275B, 2-[(4-{6-[(4-chloro-2-fluorobenzyl)oxy]pyridin-2-yl}piperidin-1-yl)methyl]-1-[(1-methylazetidin-2-yl)methyl]-1H-benzimidazole-6-carboxylic acid], the EC50 is over 20000 nM.
On the same count and under the same terms, to `O=C(O)c1ccc2nc(CN3CCC(c4cccc(OCc5ccc(Cl)cc5F)n4)CC3)n(Cc3ncon3)c2c1` [Compound 271B, 2-[(4-{6-[(4-chloro-2-fluorobenzyl)oxy]pyridin-2-yl}piperidin-1-yl)methyl]-1-(1,2,4-oxadiazol-3-ylmethyl)-1H-benzimidazole-6-carboxylic acid] belongs over 20000 nM.
On to `COCCn1c(CN2CCC(c3ccc(F)c(OCc4ccc(Cl)cc4F)n3)CC2)nc2ccc(C(=O)O)cc21` [Compound 178B, 2-[(4-{6-[(4-chloro-2-fluorobenzyl)oxy]-5-fluoropyridin-2-yl}piperidin-1-yl)methyl]-1-(2-methoxyethyl)-1H-benzimidazole-6-carboxylic acid], for which the EC50 came to 4500 nM and the maximal effect (Emax) came to 48%.
The matching figures for `Cc1cc(Cn2c(CN3CCC(c4cccc(OCc5ccc(Cl)cc5F)n4)CC3)nc3ccc(C(=O)O)cc32)no1` [Compound 310B, 2-[(4-{6-[(4-chloro-2-fluorobenzyl)oxy]pyridin-2-yl}piperidin-1-yl)methyl]-1-[(5-methyl-1,2-oxazol-3-yl)methyl]-1H-benzimidazole-6-carboxylic acid]: 320 nM and 79%.
With `COCCn1c(CN2CCC(c3cccc(OCc4ccccc4)n3)CC2)nc2ccc(C(=O)O)cc21` [Compound 181B, 2-({4-[6-(benzyloxy)pyridin-2-yl]piperidin-1-yl}methyl)-1-(2-methoxyethyl)-1H-benzimidazole-6-carboxylic acid], the 50% effective concentration (EC50) is 170 nM and the Emax came out at 68%.
For the compound `COCCn1c(CN2CCC(c3cccc(OCc4ccc(Cl)cc4F)n3)CC2)nc2ccc(C(=O)O)nc21` [Compound 213B, 2-[(4-{6-[(4-chloro-2-fluorobenzyl)oxy]pyridin-2-yl}piperidin-1-yl)methyl]-3-(2-methoxyethyl)-3H-imidazo[4,5-b]pyridine-5-carboxylic acid], a half-maximal effect (EC50) was put at 390 nM and the Emax stood at 82%.
On the same counts, the results for `O=C(O)c1ccc2nc(CN3CCC(c4cccc(OCc5ccc(Cl)cc5F)n4)CC3)n(CCN3CCCOC3=O)c2c1` [Compound 305B, 2-[(4-{6-[(4-chloro-2-fluorobenzyl)oxy]pyridin-2-yl}piperidin-1-yl)methyl]-1-[2-(2-oxo-1,3-oxazinan-3-yl)ethyl]-1H-benzimidazole-6-carboxylic acid] are 190 nM and 86%.

Values taken from patent US20250235460A1, “COMBINATION THERAPY USING GLUCOSE-DEPENDENT INSULINOTROPIC POLYPEPTIDE RECEPTOR ANTAGONIST COMPOUNDS AND GLP-1 RECEPTOR AGONIST COMPOUNDS” (Pfizer Inc., priority 2024, published 2025).
